The results in this text go back to US20230023559A1, “ARYLMETHYLENE HETEROCYCLIC COMPOUNDS AS KV1.3 POTASSIUM SHAKER CHANNEL BLOCKERS” (D. E. Shaw Research, LLC, priority 2019, published 2023).

For the test, the target named is T1, Kv1.3 potassium channel (Homo sapiens, UniProt P22001).
T1 construct: expressed in transfected cells
Put plainly: Kv1.3 potassium channel blocker activity, automated whole-cell patch clamp (Patchliner). It is filed as cell-based. Conditions: CHO-K1 cells stably expressing Kv1.3; whole cell current inhibition; read-out: Kv1.3_IC50. As for the experimental part: The assay described below is used to evaluate the disclosed compound's activities as Kv1.3 potassium channel blockers.
CHO-K1 cells stably expressing Kv1.3 were grown in DMEM containing 10% heat-inactivated FBS, 1 mM Sodium Pyruvate, 2 mM L-Glutamine and G418 (500 μg/ml).
All compounds were dissolved in DMSO at 30 mM.
The currents were evoked by applying 100 ms depolarizing pulses from −90 mV (holding potential) to +40 mV were applied with 0.1 Hz frequency. […] 10 second breaks were used between pulse trains (see Table A below).
Data were sampled at 10 kHz without filtering. Passive leak currents were subtracted online using a P/4 procedure (HEKA Elektronik Dr. Schulze GmbH). […] Total compound incubation time before the next pulse train was not longer than 10 seconds. Peak current inhibition was observed during compound equilibration.

Molecules are shown by their SMILES.

By IC50 is commonly meant the concentration that inhibits the measured activity by half.

T1 sequence (P22001 whole entry): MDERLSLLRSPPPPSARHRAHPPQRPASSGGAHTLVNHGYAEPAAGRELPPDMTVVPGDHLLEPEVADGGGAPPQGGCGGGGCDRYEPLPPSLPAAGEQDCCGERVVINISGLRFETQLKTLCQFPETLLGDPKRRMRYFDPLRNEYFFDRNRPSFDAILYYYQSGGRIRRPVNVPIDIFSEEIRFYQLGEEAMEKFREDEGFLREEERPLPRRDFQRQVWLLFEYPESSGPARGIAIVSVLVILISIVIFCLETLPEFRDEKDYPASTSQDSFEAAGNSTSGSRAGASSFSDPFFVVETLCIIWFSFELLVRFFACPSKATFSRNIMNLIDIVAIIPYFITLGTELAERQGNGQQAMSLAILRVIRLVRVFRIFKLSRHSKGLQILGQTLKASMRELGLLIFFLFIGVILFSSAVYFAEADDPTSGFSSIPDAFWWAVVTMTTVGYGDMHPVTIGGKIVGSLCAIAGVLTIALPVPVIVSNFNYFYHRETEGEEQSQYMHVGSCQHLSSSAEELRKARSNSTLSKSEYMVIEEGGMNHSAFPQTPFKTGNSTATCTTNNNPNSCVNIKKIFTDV

Turning to `Cc1cc(O)c([C@H](N)C2CCN(C(=O)c3ccc4oc(=O)[nH]c4c3)CC2)cc1Cl` [Compound 258, 5-[4-[(R)-amino(5-chloro-2-hydroxy-4-methylphenyl)methyl]piperidine-1-carbonyl]-3H-1,3-benzoxazol-2-one formic acid], the IC50 is < 0.5 µM.

As to `NC(c1cc(Cl)c(Cl)cc1O)C1CCN(C(=O)NC2CC2)CC1` (centres unmarked) [Compound 57, 4-(amino(4,5-dichloro-2-hydroxyphenyl)methyl)-N-cyclopropylpiperidine-1-carboxamide], the IC50 was < 10 µM.

Regarding `N[C@@H](c1cc(Cl)c(Cl)cc1O)[C@@H]1CCCN(C(=O)[C@H](O)CO)C1` [Compound 329, (2R)-1-[(3R)-3-[(R)-amino(4,5-dichloro-2-hydroxyphenyl)methyl]piperidin-1-yl]-2,3-dihydroxypropan-1-one Trifluoroacetic Acid], the IC50 is < 10 µM.

Take `CC(N)(c1cc(Cl)c(Cl)cc1O)C1CCNCC1` (centres unmarked) [Compound 40, 2-[1-amino-1-(piperidin-4-yl)ethyl]-4,5-dichlorophenol]: the IC50 was < 30 µM.

As for `Cc1cc(O)c([C@H](N)C2CCN(C(=O)c3ccc4c(c3)OCC(=O)N4)CC2)cc1Cl` [Compound 265, 7-[4-[(R)-amino(5-chloro-2-hydroxy-4-methylphenyl)methyl]piperidine-1-carbonyl]-2,4-dihydro-1,4-benzoxazin-3-one trifluoroacetic acid], the IC50 was < 0.5 µM.

For `CN[C@@H](c1cc(Cl)c(Cl)cc1O)C1CCN(C(=O)[C@H](O)CO)CC1` [Compound 337, (2R)-1-[4-[(R)-(4,5-dichloro-2-hydroxyphenyl)(methylamino)methyl]piperidin-1-yl]-2,3-dihydroxypropan-1-one], the IC50 is < 10 µM.

`O=C(NC(c1cc(Cl)c(Cl)cc1O)C1CCNCC1)C(F)(F)F` (centres unmarked) [Compound 22, N-((4,5-dichloro-2-hydroxyphenyl)(piperidin-4-yl)methyl)-2,2,2-trifluoroacetamide]: the IC50 is < 10 µM.

As to `CN1C[C@H](C(=O)N2CCC([C@@H](N)c3cc(Cl)c(Cl)cc3O)CC2)OCC1=O` (single isomer, unassigned; isomer 1) [Compound 274], the IC50 was < 0.5 µM.

As for `CNC(c1cc(Cl)c(Cl)cc1O)C1CCN(C(=O)C(O)CO)CC1` (centres unmarked) [Compound 184, 1-[4-[(4,5-dichloro-2-hydroxyphenyl)(methylamino)methyl]piperidin-1-yl]-2,3-dihydroxypropan-1-one Trifluoroacetic Acid], the IC50 was < 10 µM.

With `CN(C)C(=O)CN1CCC(C(N)c2cc(Cl)c(Cl)cc2O)CC1` (centres unmarked) [Compound 55, 2-[4-[amino(4,5-dichloro-2-hydroxyphenyl)methyl]piperidin-1-yl]-N,N-dimethylacetamide], the IC50 is < 10 µM.

`N[C@@H](c1cc(Cl)c(C(F)F)cc1O)C1CCN(C(=O)[C@H](O)CO)CC1` [Compound 227, (2R)-1-[4-[(R)-amino[5-chloro-4-(difluoromethyl)-2-hydroxyphenyl]methyl]piperidin-1-yl]-2,3-dihydroxypropan-1-one Trifluoroacetic Acid]: the IC50 is < 0.5 µM.

On to `CC(O)(c1cc(Cl)c(Cl)cc1O)C1CCNCC1` (centres unmarked) [Compound 3, 4,5-dichloro-2-[1-hydroxy-1-(piperidin-4-yl)ethyl]phenol], for which the IC50 was < 10 µM.

Consider `Cc1ccc([C@H](N)C2CCN(C(=O)[C@H](O)CO)CC2)c(O)c1` [Compound 294, (2R)-1-[4-[(R)-amino(2-hydroxy-4-methylphenyl)methyl]piperidin-1-yl]-2,3-dihydroxypropan-1-one Trifluoroacetic Acid], for which the IC50 is < 10 µM.

With `N[C@H](c1cc(Cl)c(Cl)cc1O)C1CCNCC1` (single isomer, unassigned) [Compound 15, Trifluoroacetic Acid], the IC50 is < 10 µM.

On to `N[C@@H](c1cc(Cl)c(C2=CCCC2)cc1O)C1CCN(C(=O)[C@H](O)CO)CC1` [Compound 318, (2R)-1-[4-[(R)-amino[5-chloro-4-(cyclopent-1-en-1-yl)-2-hydroxyphenyl]methyl]piperidin-1-yl]-2,3-dihydroxypropan-1-one Trifluoroacetic Acid], for which the half-maximal inhibitory concentration (IC50) was < 30 µM.

For `NC(c1cc(Cl)c(Cl)cc1O)[C@@H]1C[C@@H]2CN(C(=O)[C@H](O)CO)C[C@@H]2C1` (stereo partly drawn) [Compound 225, (2R)-1-((3aR,5R,6aS)-5-(amino(4,5-dichloro-2-hydroxyphenyl)methyl)hexahydrocyclopenta[c]pyrrol-2 (1H)-yl)-2,3-dihydroxypropan-1-one], the IC50 was < 10 µM.

For `COc1cc(C(=O)N2CCC([C@@H](N)c3cc(Cl)c(C)cc3O)CC2)c[nH]c1=O` [Compound 251, 5-[4-[(R)-amino(5-chloro-2-hydroxy-4-methylphenyl)methyl]piperidine-1-carbonyl]-3-methoxy-1H-pyridin-2-one Trifluoroacetic Acid], the IC50 is < 0.5 µM.

Consider `CN1CCC(C(NC(=O)C(F)(F)F)c2cc(Cl)c(Cl)cc2O)CC1` (centres unmarked) [Compound 14, N-[(4,5-dichloro-2-hydroxyphenyl)(1-methylpiperidin-4-yl)methyl]-2,2,2-trifluoroacetamide], for which the IC50 was < 10 µM.

Take `N[C@@H](c1cc(Cl)c(Cl)cc1O)[C@H]1CCN(C(=O)[C@H](O)CO)C1` (single isomer, unassigned; isomer 2) [Compound 312]: the concentration for half-maximal inhibition (IC50) is < 10 µM.

As for `C[C@](O)(c1cc(Cl)c(Cl)cc1O)C1CCNCC1` (single isomer, unassigned; isomer 2) [Compound 26, 4,5-dichloro-2-(1-hydroxy-1-(piperidin-4-yl)ethyl)phenol Isomer 2], the IC50 was < 10 µM.

For the molecule `CN1CCC([C@@H](O)c2cc(Cl)c(Cl)cc2O)CC1` (single isomer, unassigned) [Compound 24], the IC50 is < 10 µM.

With `CC[C@@H](N)C(=O)N1CCC([C@@H](N)c2cc(Cl)c(Cl)cc2O)CC1` [Compound 88, (R)-2-amino-1-(4-((R)-amino(4,5-dichloro-2-hydroxyphenyl)methyl)piperidin-1-yl)butan-1-one trifluoroacetic acid], the IC50 is < 0.5 µM.

With `N[C@@H](c1cc(Cl)c(F)cc1O)C1CCN(C(=O)[C@H](O)CO)CC1` [Compound 285, (2R)-1-[4-[(R)-amino(5-chloro-4-fluoro-2-hydroxyphenyl)methyl]piperidin-1-yl]-2,3-dihydroxypropan-1-one Trifluoroacetic Acid], the half-maximal inhibitory concentration (IC50) is < 10 µM.

Regarding `N[C@@H](c1cc(Cl)c(Cl)cc1O)C1CCN(C(=O)c2c[nH]c(=O)[nH]2)CC1` [Compound 254, 4-[4-[(R)-amino(4,5-dichloro-2-hydroxyphenyl)methyl]piperidine-1-carbonyl]-1,3-dihydroimidazol-2-one trifluoro-acetic acid], the IC50 is < 0.5 µM.

Take `Cc1[nH]c(=O)ccc1C(=O)N1CCC([C@@H](N)c2cc(Cl)c(Cl)cc2O)CC1` [Compound 230, (R)-5-(4-(amino(4,5-dichloro-2-hydroxyphenyl)methyl)piperidine-1-carbonyl)-6-methylpyridin-2(1H)-one]: the IC50 was < 10 µM.

`OCC(c1cc(Cl)c(Cl)cc1O)C1CCNCC1` (centres unmarked) [Compound 5, 4,5-dichloro-2-[2-hydroxy-1-(piperidin-4-yl)ethyl]phenol]: the IC50 was < 10 µM.

For the molecule `N[C@@H](c1cc(Cl)c(Cl)cc1O)[C@H]1CCC(=O)NC1` (single isomer, unassigned; diastereoisomer 1) [Compound 38, 5-(amino(4,5-dichloro-2-hydroxyphenyl)methyl)piperidin-2-one trifluoroacetic acid diastereoisomer 1], the IC50 is < 10 µM.

Turning to `N[C@@H](c1cc(Cl)c(Cl)cc1O)[C@@H]1CCN(C(=O)[C@H](O)CO)C1` [Compound 311, (2R)-1-[(3R)-3-[(R)-amino(4,5-dichloro-2-hydroxyphenyl)methyl]pyrrolidin-1-yl]-2,3-dihydroxypropan-1-one], the IC50 is < 10 µM.

For the molecule `N[C@@H](c1c(O)ccc(Cl)c1Cl)C1CCN(C(=O)[C@H](O)CO)CC1` [Compound 187, (2R)-1-[4-[(R)-amino(2,3-dichloro-6-hydroxyphenyl)methyl]piperidin-1-yl]-2,3-dihydroxypropan-1-one Trifluoroacetic Acid], the IC50 was < 10 µM.

As to `NC(c1cc(Cl)c(Cl)cc1O)C1CCN(CC(F)F)CC1` (centres unmarked) [Compound 62, 2-(amino(1-(2,2-difluoroethyl)piperidin-4-yl)methyl)-4,5-dichlorophenol Trifluoroacetic Acid], the IC50 was < 10 µM.

`N[C@@H](c1cc(Cl)c(Cl)cc1O)[C@@H]1CCCN(C(=O)[C@H](O)CO)CC1` (single isomer, unassigned; isomer 1) [Compound 333]: the IC50 was < 10 µM.

For `NCC(c1cc(Cl)c(Cl)cc1O)C1CCNCC1` (centres unmarked) [Compound 8, 2-[2-amino-1-(piperidin-4-yl)ethyl]-4,5-dichlorophenol], the IC50 was < 10 µM.

For the molecule `CC(C)C[C@H](N)C(=O)N1CCC([C@@H](N)c2cc(Cl)c(Cl)cc2O)CC1` [Compound 93, (S)-2-amino-1-(4-((R)-amino (4,5-dichloro-2-hydroxyphenyl)methyl)piperidin-1-yl)-4-methylpentan-1-one], the IC50 is < 10 µM.

Consider `CS(=O)(=O)NC(c1cc(Cl)c(Cl)cc1O)C1CCNCC1` (centres unmarked) [Compound 12, N-((4,5-dichloro-2-hydroxyphenyl)(piperidin-4-yl)methyl)methanesulfonamide], for which the IC50 was < 10 µM.

Take `Cc1cc(O)c([C@H](N)C2CCN(C(=O)c3ccncc3)CC2)cc1Cl` [Compound 234, 2-[(R)-amino[1-(pyridine-4-carbonyl)piperidin-4-yl]methyl]-4-chloro-5-methylphenol trifluoroacetic acid]: the half-inhibitory concentration (IC50) is < 0.5 µM.
